In US7897588B2, “Agents and methods for enhancing bone formation” (The Regents of the University of California, priority 2003, dated 2011):

Assays:
[1] = system: M2-10B4 mouse marrow stromal cell line; assay: Matrix mineralization in M2 cells (von Kossa staining, 45Ca incorporation assay); format: cell-based
Procedure: Cells: M2-10B4 mouse marrow stromal cell line obtained from American Type Culture Collection (ATCC, Rockville, Md., U.S.A.) was derived from bone marrow stromal cells of a (C57BL/6J×C3H/HeJ) F1 mouse, and support human and murine myelopoiesis in long-term cultures (as per ATCC) and have the ability to differentiate into osteoblastic and adipocytic cells. Unless specified, these cells were cultured in RPMI 1640 containing 10% heat-inactivated FBS, and supplemented with 1 mM sodium pyruvate, 100 U/ml penicillin, and 100 […] (all from Irvine Scientific).
Von Kossa and oil red O staining—Matrix mineralization in cell monolayers was detected by silver nitrate staining as previously described. Oil red O staining for detection of adipocytes was performed as previously described.
^45Ca incorporation assay—Matrix mineralization in cell monolayers was quantified using the ^45Ca incorporation assay as previously described.
M2 cells at confluence were treated in osteogenic medium with control vehicle or 5 μM oxysterols, alone or in combination as indicated. After 14 days, mineralization was identified by a von Kossa staining, which appears black. FIG. 3C is a depiction of von Kossa staining of M2 cells exposed to various conditions.
M2 cells were treated with control vehicle (C) or a combination of 22R and 20S oxysterols at increasing concentrations. After 14 days, matrix mineralization in cultures was quantified using a ^45Ca incorporation assay. […] FIG. 3D is a bar graph depicting the effect of a combination of oxysterols at various doses on calcium incorporation in M2 cells.
Next, a combination of 22R and 20S oxysterols (RS, 2.5 μM each) were added in the presence or absence of SC as indicated. After 3 days, ALP activity was measured as described earlier. […] (B) M2 cells were treated as described in (A) and after 10 days matrix mineralization in cultures was quantified by a ^45Ca incorporation assay as described earlier. Results from a representative of three experiments are shown, reported as the mean±SD of quadruplicate determinations, normalized to protein concentration. (C) M2 cells were pretreated with 20 μM SC for 4 hours, followed by the addition of RS in the presence or absence of SC as described above. After 8 days, total RNA was isolated and analyzed for osteocalcin (Osc) and 18S rRNA expression by Northern blotting as previously described. Data from densitometric analysis of the Northern blot is shown in (D) as the average of duplicate samples, normalized to 18S rRNA. (E) M2 cells at confluence were pretreated for 2 hours with control vehicle (C), or PLA2 inhibitors ACA (25 μM) and AACOCF3 (AAC, 20 μM), in osteogenic medium. Next, a combination of 22R and 20S oxysterols (RS, 2.5 μM) was added in the presence or absence of the inhibitors as indicated. After 3 days, ALP activity was measured as previously described. Data from a representative of three experiments are shown, reported as the mean±SD of quadruplicate determinations, normalized to protein concentration (p<0.01 for RS vs. RS+ACA and RS+AAC). (F) M2 cells were treated as described in (E). After 10 days, matrix minerliazation in cultures was quantified using a ^45Ca incorporation assay as previously described. Results from a representative of three experiments are shown, reported as the mean of quadruplicate determinations±SD, normalized to protein concentration (p<0.01 for RS vs. RS+ACA and RS+AAC).
(A) M2 cells at confluence were pretreated for four hours with RPMI containing 1% FBS, followed by treatment with control vehicle or 5 μM 20S oxysterol for 1, 4, or 8 hours. Next total cell extracts were prepared and analyzed for levels of native or phosphorylated ERK (pERK) using specific antibodies as previously described.

[2] = system: osteocalcin mRNA; assay: Northern blot for osteocalcin mRNA in M2 cells; format: cell-based, mouse
Procedure: RNA isolation and Northern blot analysis—Following treatment of cells under appropriate experimental conditions, total RNA was isolated using the RNA isolation kit from Stratagene (La Jolla, Calif., U.S.A.). Total RNA ([…]) was run on a 1% agarose/formaldehyde gel and transferred to Duralon-UV membranes (Strategene, Calif., U.S.A.) and cross-linked with UV light. The membranes were hybridized overnight at 60 degree C. with ^32P-labeled mouse osteocalcin cDNA probe, mouse lipoprotein lipase (LPL), mouse adipocyte protein 2 (aP2) PCR-generated probes, human 28S or 18S rRNA probes obtained from Geneka Biotechnology (Montreal, Quebec, Canada) and Maxim Biotech (San Francisco, Calif., U.S.A.), respectively. […] Following hybridization, the blots were washed twice at room temperature with 2×SSC+0.1% SDS, and then twice at 60 degree C. with 0.5×SSC+0.1% SDS, and exposed to X-ray film. The extent of gene induction was determined by densitometry.
After 4 and 8 days, total RNA from duplicate samples was isolated and analyzed for osteocalcin (Osc) and 28S rRNA expression by Northern blotting as described. FIG. 3E is a radiogram of Northern blotting for osteocalcin mRNA in M2 cells exposed to a control or combination of oxysterols for 4 or 8 days. FIG. 3F is a bar graph depicting the relative demsometric units of osteocalcin mRNA in M2 cells exposed to a control or combination of oxysterols for 4 or 8 days. Data from densitometric analysis of the Northern blot is shown in (F) as the average of duplicate samples, normalized to 28S rRNA.
Next, a combination of 22R and 20S oxysterols (RS, 2.5 μM each) were added in the presence or absence of SC as indicated. After 3 days, ALP activity was measured as described earlier. […] (B) M2 cells were treated as described in (A) and after 10 days matrix mineralization in cultures was quantified by a ^45Ca incorporation assay as described earlier. Results from a representative of three experiments are shown, reported as the mean±SD of quadruplicate determinations, normalized to protein concentration. (C) M2 cells were pretreated with 20 μM SC for 4 hours, followed by the addition of RS in the presence or absence of SC as described above. After 8 days, total RNA was isolated and analyzed for osteocalcin (Osc) and 18S rRNA expression by Northern blotting as previously described. Data from densitometric analysis of the Northern blot is shown in (D) as the average of duplicate samples, normalized to 18S rRNA. (E) M2 cells at confluence were pretreated for 2 hours with control vehicle (C), or PLA2 inhibitors ACA (25 μM) and AACOCF3 (AAC, 20 μM), in osteogenic medium. […] After 3 days, ALP activity was measured as previously described. […]

[3] = individual oxysterols 0.5-10 μM or combinations, up to 14 days
[4] = individual oxysterols 0.5-10 μM up to 14 days, combinations 5 μM each, 4 and 8 days

With `O=S(=O)(c1ccccc1)N(CC(F)(F)F)c1ccc(C(O)(C(F)(F)F)C(F)(F)F)cc1` [TO, TO-901317] the induction of mineralization ([1]; TO treatment, after 10 days) was “did not induce” and the “induction of osteocalcin gene expression” value ([2]; TO treatment, after 10 days) was “did not induce”.
`CC(C)CC[C@@H](O)[C@@H](C)[C@H]1CC[C@H]2[C@@H]3CC=C4C[C@@H](O)CC[C@]4(C)[C@H]3CC[C@]12C` [22R, 22(R)-hydroxycholesterol] was tested, and the induction of mineralization [1, 3] was “unable to induce” and the “induction of osteocalcin gene expression” value [2, 4] was “unable to induce”.
`CC(C)CCC[C@](C)(O)[C@H]1CC[C@H]2[C@@H]3CC=C4C[C@@H](O)CC[C@]4(C)[C@H]3CC[C@@]21C` [20S, 20(S)-hydroxycholesterol] was tested, and the induction of mineralization [1, 3] was “unable to induce” and the “induction of osteocalcin gene expression” value [2, 4] was “unable to induce”.
With `CC(C)CC[C@H](O)[C@@H](C)[C@H]1CC[C@H]2[C@@H]3CC=C4C[C@@H](O)CC[C@]4(C)[C@H]3CC[C@]12C` [22S, 22(S)-hydroxycholesterol] the induction of mineralization [1, 3] was “unable to induce” and the “induction of osteocalcin gene expression” value [2, 4] was “unable to induce”.
